Where “and” joins values, the source holds several entries; their conditions need not be identical. Identical values can stand only once.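 Following 48 hours of exposure in 96-well plates, responses at five concentrations were used to interpolate endpoints linearly. Here, GI50 denotes the concentration required for 50% inhibition of growth. TGI: total growth inhibition.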
Assays:
Assay in all cases: growth of human tumour cells (NCI), 48 h
[1] = tested on: A549 NSCLC
[2] = tested on: COLO 205 colon
[3] = tested on: HCC-2998 colon
[4] = tested on: OVCAR-8 ovarian
[5] = tested on: RPMI-8226 leukemia
[6] = tested on: SF-268 CNS
[7] = tested on: SK-MEL-2 melanoma
[8] = tested on: SK-OV-3 ovarian
[9] = tested on: SNB-19 CNS
[10] = tested on: UACC-257 melanoma

Structure (SMILES) | TGI [1] | TGI [2] | TGI [3] | TGI [4] | TGI [5] | TGI [6] | TGI [7] | TGI [8] | TGI [9] | TGI [10] | GI50 [1] | GI50 [2] | GI50 [3] | GI50 [4] | GI50 [5] | GI50 [6] | GI50 [7] | GI50 [8] | GI50 [9] | GI50 [10]
Nc1nc(N)c2ncn(Cc3c(Cl)cccc3Cl)c2n1 | > 100 µM | > 100 µM | > 100 µM | > 100 µM | > 100 µM | > 100 µM | > 100 µM | > 100 µM | > 100 µM | > 100 µM | – | – | – | – | – | – | – | – | – | –
CCc1nc2cc(/C=C/C(=O)NO)c(F)cc2c(=O)n1CCc1ccccc1 | 5.39 µM | 3.14 µM | 11.3 µM | 9.22 µM | 44.8 µM | 5.27 µM | 9.37 µM | 5.28 µM | 12.4 µM | 7.41 µM | 1.35 µM | 0.497 µM | 1.57 µM | 0.753 µM | 0.654 µM | 0.829 µM | 2.64 µM | 1.68 µM | 1.32 µM | 2.12 µM
COC(=O)/C=C\C1C(C(=O)OC)C2(C(=O)OC)CCC1(C(=O)OC)N2 (configuration not stated) | 39.9 µM | 13.5 µM | 31.2 µM | 19 µM | 26.4 µM | 44.5 µM | 30 µM | 31.9 µM | 23.8 µM | 19.2 µM | – | – | – | – | – | – | – | – | – | –
C=CCCC12CCCC(=O)C1Sc1ccc3ccccc3c12 (configuration not stated) | 24.5 µM | 29.1 µM | 34.2 µM | > 100 µM | 42.9 µM | > 100 µM | 32.8 µM | 66.4 µM | 96 µM | 55.7 µM | – | – | – | – | – | – | – | – | – | –
COc1ccc(S(=O)(=O)N2CCCCC2)cc1NC(=O)c1[nH]c(C)c2c1CCCCC2=O | 15 µM | 26.4 µM | 11.1 µM | 46.6 µM | 32.4 µM | > 100 µM | 31 µM | 44.4 µM | > 100 µM | 24.7 µM | 2.26 µM | 1.71 µM | 1.73 µM | 2.19 µM | 1.46 µM | 7.91 µM | 2.4 µM | 2.14 µM | 3.8 µM | 0.853 µM
CCCCCCCCCCCCCCCC[N+](C)(C)C | 0.417 µM and 3.78 µM | 0.295 µM and 2.75 µM | 3.73 µM | 0.536 µM | 0.792 µM | 0.483 µM and 3.12 µM | 1.17 µM | 1.35 µM and 6.2 µM | 0.255 µM | 0.942 µM and 6.33 µM | – | 0.16 µM and 1.19 µM | 1.71 µM | 0.212 µM | 0.142 µM | 0.177 µM and 1.21 µM | 0.314 µM | 0.314 µM and 2.12 µM | 0.129 µM | 0.266 µM and 2.46 µM
COc1ccccc1NC(=O)N/C(N)=N/c1nc2ccccc2s1 | > 100 µM | > 100 µM | > 100 µM | > 100 µM | > 72.4 µM | > 100 µM | > 100 µM | > 100 µM | > 100 µM | > 100 µM | 0.107 µM | 0.254 µM | 0.375 µM | 0.262 µM | 0.163 µM | – | 0.446 µM | 0.476 µM | 0.0607 µM | –
Cc1cc(Cl)ccc1N1C(=O)C(=O)C(c2nc3ccccc3s2)/C(=N\NC(=O)c2ccccc2O)C1=O (configuration not stated) | > 100 µM | > 100 µM | > 100 µM | > 100 µM | > 100 µM | > 100 µM | > 100 µM | > 100 µM | > 100 µM | > 100 µM | – | – | – | – | – | – | – | – | – | –
CN(C)c1ccc2c(SCC(=O)OCC(=O)[C@@]3(O)CC[C@H]4[C@@H]5CCC6=CC(=O)C=C[C@]6(C)[C@H]5C(=O)C[C@@]43C)c3ccc(N(C)C)cc3nc2c1 | > 100 µM | > 100 µM | > 100 µM | 37 µM | 82.5 µM | > 100 µM | > 100 µM | > 100 µM | > 94.5 µM | > 77.5 µM | – | – | – | – | – | – | – | – | – | –
CCCCCCCCCCSS(=O)(=O)c1ccc(C)cc1 | 29.8 µM | 33.6 µM | 39.3 µM | 32.2 µM | 29.6 µM | 19 µM | 12.4 µM | 42.9 µM | 27.6 µM | 19.8 µM | – | – | – | – | – | – | – | – | – | –
Cc1cc2cc(Oc3ccnc(Nc4cccc(CS(=O)(=O)NCCN(C)C)c4)n3)ccc2[nH]1 | 25.5 µM | 16.9 µM | 25.2 µM | 36.1 µM | 11.5 µM | 17.3 µM | 25.7 µM | 29.5 µM | 26.1 µM | 4.79 µM | 12 µM | 4.47 µM | 11.6 µM | 15.8 µM | 2.99 µM | 3.93 µM | 11.5 µM | 14.4 µM | 13 µM | 2.33 µM
CC(C)(C)c1ccc(NC(=O)c2cc(=O)c3ccccc3[nH]2)c(C(C)(C)C)c1O | 12.6 µM | 10.5 µM | 10.4 µM | 12.2 µM | 14.1 µM | 22.4 µM | 26.4 µM | 26.8 µM | 30 µM | 21.3 µM | 3.23 µM | 3.8 µM | 3.04 µM | 3.28 µM | 2.89 µM | 7.48 µM | 12.6 µM | 13.8 µM | 13.7 µM | 6.35 µM
O=C(CN1C(=O)c2ccccc2C1=O)OC1C=CCCC1 (configuration not stated) | > 100 µM | > 100 µM | > 100 µM | > 100 µM | > 100 µM | > 100 µM | > 100 µM | > 100 µM | > 100 µM | > 100 µM | – | – | – | – | – | – | – | – | – | –
O=C(/C=C/c1ccccc1)c1ccc(O)c(CN2CCN(c3cc4c(cc3F)c(=O)c(C(=O)O)cn4C3CC3)CC2)c1 | > 100 µM | 74.5 µM | 53.6 µM | > 100 µM | 6.37 µM | > 100 µM | > 100 µM | > 100 µM | > 100 µM | > 100 µM | 3.17 µM | 3.86 µM | 3.11 µM | 0.592 µM | 0.275 µM | 2.53 µM | 3.3 µM | 2.77 µM | 0.984 µM | 1.91 µM
O=C(Oc1ccccc1Cl)c1cccnc1Nc1ccnc(C(F)(F)F)c1 | > 100 µM | 84.5 µM | 30 µM | 47 µM | 36.7 µM | 33.6 µM | 21.8 µM | > 100 µM | 70.1 µM | 63.5 µM | 30.2 µM | 26.6 µM | 15.6 µM | 14.7 µM | 12.4 µM | 10.1 µM | 6.79 µM | 36.9 µM | 23.4 µM | 21.4 µM
CCC1(c2ccncc2)CCC(=O)NC1=O (configuration not stated) | > 100 µM | > 100 µM | > 100 µM | > 100 µM | > 100 µM | > 100 µM | > 100 µM | > 100 µM | > 100 µM | > 100 µM | – | – | – | – | – | – | – | – | – | –
CC(=O)[CH-]C(=O)c1ccccc1.CC(=O)[CH-]C(=O)c1ccccc1.CC(C)CCCC(C)[C@H]1CCC2[C@@H]3CCC4C[C@@H]([O-])CC[C@]4(C)C3CC[C@@]21C.CC(C)CCCC(C)[C@H]1CCC2[C@@H]3CCC4C[C@@H]([O-])CC[C@]4(C)C3CC[C@@]21C.Cl.[Ti+4] (some centres not stated) | > 25 µM | > 25 µM | > 25 µM | > 25 µM | > 25 µM | > 25 µM | > 25 µM | > 25 µM | > 25 µM | > 25 µM | > 25 µM | > 25 µM | > 25 µM | > 25 µM | > 25 µM | > 25 µM | > 25 µM | > 25 µM | > 25 µM | > 25 µM
CCC1N2CCCCC2[C@@H]2c3[nH]c4ccccc4c3CCN12 (some centres not stated) | > 100 µM | > 100 µM | > 100 µM | > 100 µM | > 100 µM | > 100 µM | > 100 µM | > 100 µM | > 100 µM | > 100 µM | – | – | – | – | – | – | – | – | – | –
O=C(O/N=C1/CCC/C1=C\c1ccccc1)c1ccc(Cl)cc1 | > 100 µM | > 100 µM | > 100 µM | > 100 µM | > 100 µM | > 100 µM | > 100 µM | > 100 µM | > 100 µM | > 100 µM | – | – | – | – | – | – | – | – | – | –
C[C@]1(O)CC(=O)[C@]2(O)C3=C(C=C[C@]2(O)C1)C(=O)c1c(O)cccc1C3=O | 38.6 µM | 0.584 µM | 20.7 µM | 7.75 µM | 5.65 µM | 20.5 µM | 5.56 µM | 42 µM | 26.5 µM | 3.21 µM | 16.3 µM | 0.229 µM | 7.59 µM | 2.67 µM | 1.64 µM | 5.16 µM | 2.47 µM | 17.5 µM | 13.6 µM | 1.68 µM
C/C(=C\c1ccccc1)C(O)S(=O)(=O)O (configuration not stated) | > 100 µM | > 100 µM | > 100 µM | > 100 µM | > 100 µM | > 100 µM | > 100 µM | > 100 µM | > 100 µM | > 100 µM | – | – | – | – | – | – | – | – | – | –
CC(C)NCCCNC1=C(Cl)C(=O)c2ccccc2C1=O | 33.5 µM | 3.56 µM | 4.49 µM | 5.1 µM | 19.2 µM | 15.1 µM | 30 µM | 29.4 µM | 26 µM | 3.63 µM | 11.2 µM | 1.87 µM | 2.14 µM | 2.13 µM | 3.48 µM | 4.42 µM | 13.5 µM | 15.8 µM | 12.8 µM | 1.91 µM
C#Cc1cccc(N2C(=O)CC(=P(c3ccccc3)(c3ccccc3)c3ccccc3)C2=O)c1 | > 100 µM | > 100 µM | > 100 µM | > 100 µM | 63.2 µM | > 100 µM | > 100 µM | > 100 µM | > 100 µM | > 100 µM | – | – | – | – | – | – | – | – | – | –
CCCCn1c(=O)c(/C=C/C(=O)/C=C/c2ccc(O)c(OC)c2)cc2ccc(Cl)cc21 | 4.84 µM | 4.83 µM | 3.54 µM | 9.49 µM | 7.62 µM | 5.43 µM | 6.32 µM | 14.2 µM | 3.3 µM | 3.31 µM | 1.72 µM | 1.72 µM | 2.05 µM | 2.47 µM | 2.46 µM | 1.96 µM | 2.67 µM | 3.82 µM | 1.62 µM | 1.41 µM
COc1ccc(-n2nc(C)c3c(Nc4ccc(NC(=O)Nc5cc(C(F)(F)F)ccc5F)cc4)ncnc32)cc1 | 5.86 µM | 4.93 µM | 15.5 µM | 6.16 µM | 5.88 µM | > 100 µM | 4.91 µM | 82.3 µM | > 100 µM | 4.42 µM | 2.35 µM | 1.98 µM | 3.19 µM | 2.36 µM | 2.26 µM | 3.24 µM | 2.35 µM | 3.48 µM | 3.66 µM | 1.99 µM
Cc1ccc(S(=O)(=O)NC(C)C(=O)O)cc1 (configuration not stated) | > 100 µM | > 100 µM | > 100 µM | > 100 µM | > 100 µM | > 100 µM | > 100 µM | > 100 µM | > 100 µM | > 100 µM | – | – | – | – | – | – | – | – | – | –
